Like-named read-outs stand apart in the source and are kept apart here.
How the values were obtained:
[1] = target: T1, SIK1 (Homo sapiens, UniProt P57059); test: biochemical; settings: ADP-Glo SIK kinase assay
T1 construct: purchased Carna Biosciences 02-131
Outline: (§1)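 Wells with 1% DMSO or 10 μM staurosporine (final) define the control window. The kinase reaction with substrate and ATP runs 120 min at RT, followed by ADP-Glo detection: ATP depletion (40 min) and ADP-derived luminescence (30 min).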

[2] = target: T2, SIK2 (Homo sapiens, UniProt Q9H0K1); test: biochemical; settings: ADP-Glo SIK kinase assay
T2 construct: purchased ThermoFisher Scientific PV4792
T2 sequence (Q9H0K1 whole entry): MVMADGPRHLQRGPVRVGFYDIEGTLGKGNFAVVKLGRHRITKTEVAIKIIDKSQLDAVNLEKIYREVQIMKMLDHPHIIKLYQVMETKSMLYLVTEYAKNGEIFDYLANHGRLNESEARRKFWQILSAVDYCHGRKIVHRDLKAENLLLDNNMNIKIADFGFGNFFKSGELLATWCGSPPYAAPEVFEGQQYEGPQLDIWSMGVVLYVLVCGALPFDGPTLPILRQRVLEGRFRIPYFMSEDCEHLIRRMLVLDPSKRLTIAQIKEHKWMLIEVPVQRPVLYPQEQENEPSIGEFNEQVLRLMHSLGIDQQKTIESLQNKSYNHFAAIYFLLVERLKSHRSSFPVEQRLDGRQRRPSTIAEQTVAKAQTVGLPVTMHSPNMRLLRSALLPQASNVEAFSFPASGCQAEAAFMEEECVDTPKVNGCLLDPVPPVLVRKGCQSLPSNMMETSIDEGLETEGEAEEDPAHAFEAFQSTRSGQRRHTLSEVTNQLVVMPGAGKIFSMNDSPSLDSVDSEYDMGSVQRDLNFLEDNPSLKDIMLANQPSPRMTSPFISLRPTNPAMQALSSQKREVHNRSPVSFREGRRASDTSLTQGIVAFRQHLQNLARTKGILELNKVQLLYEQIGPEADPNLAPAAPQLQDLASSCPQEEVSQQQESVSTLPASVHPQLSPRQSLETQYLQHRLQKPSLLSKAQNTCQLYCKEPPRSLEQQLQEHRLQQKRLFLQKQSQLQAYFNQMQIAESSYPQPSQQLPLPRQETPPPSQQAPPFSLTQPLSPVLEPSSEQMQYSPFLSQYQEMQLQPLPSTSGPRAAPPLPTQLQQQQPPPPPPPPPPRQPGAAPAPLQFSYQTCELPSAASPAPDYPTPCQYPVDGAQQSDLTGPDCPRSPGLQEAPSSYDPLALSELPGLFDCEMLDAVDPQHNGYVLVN
Outline: as §1

[3] = target: T3, SIK3 (Homo sapiens, UniProt Q9Y2K2); test: biochemical; settings: ADP-Glo SIK kinase assay
T3 construct: purchased SignalChem S12-11G-100
T3 sequence (Q9Y2K2 whole entry): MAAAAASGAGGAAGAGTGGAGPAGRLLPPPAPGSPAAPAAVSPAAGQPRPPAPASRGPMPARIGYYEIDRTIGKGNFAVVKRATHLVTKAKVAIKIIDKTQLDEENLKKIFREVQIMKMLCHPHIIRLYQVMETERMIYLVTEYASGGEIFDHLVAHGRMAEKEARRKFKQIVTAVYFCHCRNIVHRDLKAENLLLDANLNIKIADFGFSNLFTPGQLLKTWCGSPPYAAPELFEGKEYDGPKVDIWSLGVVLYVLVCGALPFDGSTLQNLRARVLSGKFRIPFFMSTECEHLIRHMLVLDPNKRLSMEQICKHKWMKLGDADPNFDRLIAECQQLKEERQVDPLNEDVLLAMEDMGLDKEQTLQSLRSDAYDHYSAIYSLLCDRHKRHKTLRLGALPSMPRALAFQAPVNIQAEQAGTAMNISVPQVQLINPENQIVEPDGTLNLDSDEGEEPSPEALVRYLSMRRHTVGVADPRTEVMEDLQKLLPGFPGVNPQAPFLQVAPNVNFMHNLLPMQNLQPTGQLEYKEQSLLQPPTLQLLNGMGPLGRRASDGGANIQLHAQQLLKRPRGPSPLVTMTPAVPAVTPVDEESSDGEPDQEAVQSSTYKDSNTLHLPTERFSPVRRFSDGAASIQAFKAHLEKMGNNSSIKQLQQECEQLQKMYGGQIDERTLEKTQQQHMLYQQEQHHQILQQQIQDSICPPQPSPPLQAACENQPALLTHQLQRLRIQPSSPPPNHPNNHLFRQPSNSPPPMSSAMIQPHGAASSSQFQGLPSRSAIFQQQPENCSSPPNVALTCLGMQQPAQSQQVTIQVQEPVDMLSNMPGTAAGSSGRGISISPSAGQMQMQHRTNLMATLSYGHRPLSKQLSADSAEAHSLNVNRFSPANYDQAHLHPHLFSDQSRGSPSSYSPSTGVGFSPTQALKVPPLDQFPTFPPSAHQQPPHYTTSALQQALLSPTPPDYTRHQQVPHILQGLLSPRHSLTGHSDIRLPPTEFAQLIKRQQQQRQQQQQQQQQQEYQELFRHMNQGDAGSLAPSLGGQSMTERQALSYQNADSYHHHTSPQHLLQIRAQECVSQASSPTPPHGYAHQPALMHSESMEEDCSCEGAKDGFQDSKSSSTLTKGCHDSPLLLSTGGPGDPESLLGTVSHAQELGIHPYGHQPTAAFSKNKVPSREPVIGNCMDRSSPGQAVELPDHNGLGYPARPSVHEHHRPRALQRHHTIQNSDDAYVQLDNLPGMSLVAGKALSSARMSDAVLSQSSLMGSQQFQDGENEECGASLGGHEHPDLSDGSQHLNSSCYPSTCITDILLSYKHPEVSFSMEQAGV
Outline: as §1

[4] = test system: LPS-induced TNFα secretion in monocyte-derived macrophages (MdM); test: MdM assay: LPS-triggered TNFα (ELISA); type: cell-based, human; settings: Homo sapiens, Macrophage, LPS-triggered TNFα inhibition
Outline: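 Human CD14+ monocytes isolated from buffy-coat PBMCs by magnetic beads, differentiated to macrophages; on day 10 compound preincubated 1 h at 37 °C, then LPS 200 ng/mL added (0.2% DMSO). Supernatant taken after 20 h; TNFα quantified by sandwich ELISA against standard curve.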

[5] = test system: LPS triggered IL-10 secretion in monocyte-derived macrophages (MdM); test: MdM assay: LPS-triggered IL-10 (ELISA); type: cell-based, human; settings: maximal fold change vs LPS only, median across assays
Outline: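 CD14+ monocytes isolated from human buffy-coat PBMCs and differentiated to macrophages for 10 days. Cells pre-treated with compound 1 h at 37° C (0.2% DMSO), then stimulated with 200 ng/mL LPS; IL-10 in supernatant at 2 h measured by ELISA (A450). Maximal fold change versus LPS only reported as median of two or more runs.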

[6] = target: T1, SIK1; test: biochemical; settings: 33P radioactive SIK kinase assay, AMARA peptide, 10 μM ATP; read-out: SIK1 IC50
Outline: (§2)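 AMARA peptide phosphorylation by SIK1–3 is quantified through ^33P uptake from a labeled/unlabeled ATP blend. Staurosporine at 10 μM final defines full inhibition, 1% DMSO the uninhibited signal. Quench uses phosphoric acid; counting follows filter capture.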

[7] = target: T2, SIK2; test: biochemical; settings: 33P radioactive SIK kinase assay, AMARA peptide, 10 μM ATP
Outline: as §2

[8] = target: T3, SIK3; test: biochemical
Outline: as §2

T1 sequence (P57059 whole entry): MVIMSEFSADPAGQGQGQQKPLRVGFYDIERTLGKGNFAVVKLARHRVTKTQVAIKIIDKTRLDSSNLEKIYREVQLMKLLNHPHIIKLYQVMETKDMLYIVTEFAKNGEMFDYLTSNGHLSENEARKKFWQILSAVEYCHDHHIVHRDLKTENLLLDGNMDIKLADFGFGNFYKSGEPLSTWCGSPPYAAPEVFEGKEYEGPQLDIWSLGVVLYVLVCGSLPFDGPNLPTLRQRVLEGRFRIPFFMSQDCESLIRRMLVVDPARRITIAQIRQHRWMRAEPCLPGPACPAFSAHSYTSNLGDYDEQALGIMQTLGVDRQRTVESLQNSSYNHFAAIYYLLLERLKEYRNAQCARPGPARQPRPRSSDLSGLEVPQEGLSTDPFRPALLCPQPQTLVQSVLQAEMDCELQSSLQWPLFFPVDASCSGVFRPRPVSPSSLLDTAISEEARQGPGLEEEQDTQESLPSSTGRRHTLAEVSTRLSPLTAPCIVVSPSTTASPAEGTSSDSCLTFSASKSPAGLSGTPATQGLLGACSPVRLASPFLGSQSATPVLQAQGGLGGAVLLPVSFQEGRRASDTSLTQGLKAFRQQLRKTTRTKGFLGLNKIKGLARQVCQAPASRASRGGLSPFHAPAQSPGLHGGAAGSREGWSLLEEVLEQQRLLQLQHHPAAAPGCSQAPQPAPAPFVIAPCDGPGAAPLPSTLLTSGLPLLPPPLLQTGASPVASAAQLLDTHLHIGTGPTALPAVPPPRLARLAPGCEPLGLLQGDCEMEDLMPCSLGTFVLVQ

Structure (SMILES)	IC50 [1]	IC50 [2]	IC50 [3]	EC50 [4]	IL-10 FCmax median [5]	IC50 [6]	IC50 [7]	IC50 [8]
COc1cc(-c2cnc3cc(-c4ccc(C)nn4)ccn23)cc2c1C(=O)N(CC(F)(F)F)CC2 [Cpd 275, 8-methoxy-6-[7-(6-methylpyridazin-3-yl)imidazo[1,2-a]pyridin-3-yl]-2-(2,2,2-trifluoroethyl)-3,4-dihydroisoquinolin-1-one]	10 to 100 nM	0.01 to 10 nM	0.01 to 10 nM	0.1 to 100 nM	++ (>1.5-4.5)	–	–	–
CCOC(=O)C(C)Cn1cc(-c2ccn3c(-c4cc(OC)c(C(=O)NCC(F)(F)F)c(OC)c4)cnc3c2)cn1 (stereo not drawn) [Cpd 293, ethyl 3-[4-[3-[3,5-dimethoxy-4-(2,2,2-trifluoroethyl-carbamoyl)phenyl]imidazo[1,2-a]pyridin-7-yl]pyrazol-1-yl]-2-methyl-propanoate]	0.01 to 10 nM	0.01 to 10 nM	0.01 to 10 nM	0.1 to 100 nM	++ (>1.5-4.5)	–	–	–
COc1cc(-c2cnc3cc(-c4cnn(C)c4)ccn23)cc2c1C(=O)N(CC(F)(F)F)C2 [compound 261, 7-methoxy-5-[7-(1-methylpyrazol-4-yl)imidazo[l,2-a]pyridin-3-yl]-2-(2,2,2-trifluoroethyl)isoindolin-1-one]	0.01 to 10 nM	0.01 to 10 nM	0.01 to 10 nM	0.1 to 100 nM	–	10 to 100 nM	0.01 to 10 nM	0.01 to 10 nM
COc1cc(-n2cnc3cc(-c4cnn(C)c4)ccc32)cc(OC)c1C(=O)NC(C)(C)C [compound 76, N-tert-butyl-2,6-dimethoxy-4-[5-(1-methylpyrazol-4-yl)benzimidazol-1-yl]benzamide]	> 500 nM	> 500 nM	> 500 nM	> 5000 nM	–	> 500 nM	> 500 nM	> 500 nM
COc1cc(-c2cnc3cc(-c4cnn(C5CN(CC#N)C5)c4)ccn23)cc(OC)c1C(=O)NCC(F)(F)F [compound 265, 4-[7-[1-[1-(cyanomethyl)azetidin-3-yl]pyrazol-4-yl]imidazo[1,2-a]pyridin-3-yl]-2,6-dimethoxy-N-(2,2,2-trifluoroethyl)benzamide]	0.01 to 10 nM	0.01 to 10 nM	0.01 to 10 nM	0.1 to 100 nM	++ (>1.5-4.5)	–	–	–
COc1cc(-c2cnc3cc(-c4cnn(C)c4)ccn23)cc(OC)c1C(=O)N1CC(C(F)(F)F)C1 [compound 213, [2,6-dimethoxy-4-[7-(1-methylpvrazol-4-yl)imidazo[1,2-a]pyridin-3-yl]phenyl]-[3-(trifluoromethyl)azetidin-1-yl]methanone]	0.01 to 10 nM	0.01 to 10 nM	0.01 to 10 nM	0.1 to 100 nM	–	0.01 to 10 nM	0.01 to 10 nM	0.01 to 10 nM
COc1cc(-c2cnc3cc(-c4cn(C)cn4)ccn23)cc(OC)c1C(=O)N[C@@H](C)C(F)(F)F [compound 216, 2,6-dimethoxy-4-[7-(1-methylimidazol-4-yl)imidazo[1,2-a]pyridin-3-yl]-N-[(1S)-2,2,2-trifluoro-1-methyl-ethyl]benzamide]	100 to 500 nM	10 to 100 nM	10 to 100 nM	1000 to 5000 nM	–	100 to 500 nM	10 to 100 nM	100 to 500 nM
COc1ccc(-c2ccn3c(-c4cc(OC)c(C(=O)NC5CC5)c(OC(F)F)c4)cnc3c2)nn1 [compound 280, N-cyclopropyl-2-(difluoromethoxy)-6-methoxy-4-[7-(6-methoxypyridazin-3-yl)imidazo[1,2-a]pyridin-3-yl]benzamide]	0.01 to 10 nM	0.01 to 10 nM	0.01 to 10 nM	0.1 to 100 nM	++ (>1.5-4.5)	–	–	–
COc1cc(-c2cnc3cc(-c4cnnc(C)c4)ccn23)cc(OC(F)F)c1C(=O)NC1CC1 [compound 272, N-cyclopropyl-2-(difluoromethoxy)-6-methoxy-4-[7-(6-methylpyridazin-4-yl)imidazo[1,2-a]pyridin-3-yl]benzamide]	10 to 100 nM	0.01 to 10 nM	0.01 to 10 nM	100 to 1000 nM	++ (>1.5-4.5)	–	–	–
COc1cc(-c2cnc3cc(-c4cnnc(C)c4)ccn23)cc(OC)c1C(=O)NCC(F)(F)F [compound 252, 2,6-dimethoxy-4-[7-(6-methylpyridazin-4-yl)imidazo[1,2-a]pyridin-3-yl]-N-(2,2,2-trifluoroethyl)benzamide]	100 to 500 nM	10 to 100 nM	0.01 to 10 nM	100 to 1000 nM	–	100 to 500 nM	10 to 100 nM	0.01 to 10 nM
COc1cc(-c2cnc3cc(-c4cnn(C)c4)ccn23)cc2c1C(=O)N(C1CC1)CC2 [compound 262, 2-cyclopropyl-8-methoxy-6-[7-(1-methylpyrazol-4-yl)imidazo[1,2-a]pyridin-3-yl]-3,4-dihydroisoquinolin-1-one]	0.01 to 10 nM	0.01 to 10 nM	0.01 to 10 nM	0.1 to 100 nM	–	10 to 100 nM	0.01 to 10 nM	0.01 to 10 nM
COc1cc(-c2cnc3cc(-c4cnn(C5CN(CCC#N)C5)c4)ccn23)cc(OC)c1C(=O)NCC(F)(F)F [Cpd 264, 4-[7-[1-[1-(2-cyanoethyl)azetidin-3-yl]pyrazol-4-yl]imidazo[1,2-a]pyridin-3-yl]-2,6-dimethoxy-N-(2,2,2-trifluoroethyl)benzamide]	0.01 to 10 nM	0.01 to 10 nM	0.01 to 10 nM	0.1 to 100 nM	++ (>1.5-4.5)	–	–	–
CCN(CC)CCOC(=O)C(C)(C)n1cc(-c2ccn3c(-c4cc(OC)c(C(=O)NCC(F)(F)F)c(OC)c4)cnc3c2)cn1 [Cpd 305, 2-(diethylamino)ethyl 2-[4-[3-[3,5-dimethoxy-4-(2,2,2-trifluoroethyl-carbamoyl)phenyl]imidazo[1,2-a]pyridin-7-yl]pyrazol-1-yl]-2-methyl-propanoate]	0.01 to 10 nM	0.01 to 10 nM	0.01 to 10 nM	100 to 1000 nM	–	–	–	–
COc1cc(-c2cnc3cc(-c4cc(C)no4)ccn23)cc(OC(F)F)c1C(=O)NC1CC1 [compound 270, N-cyclopropyl-2-(difluoromethoxy)-6-methoxy-4-[7-(3-methylisoxazol-5-yl)imidazo[1,2-a]pyridin-3-yl]benzamide]	0.01 to 10 nM	0.01 to 10 nM	0.01 to 10 nM	0.1 to 100 nM	–	–	–	–
COc1cc(-c2cnc3cc(-c4cnn(C)c4)ccn23)cc(OCCO)c1C(=O)NC1CC1 [compound 279, N-cyclopropyl-2-(2-hydroxyethoxy)-6-methoxy-4-[7-(1-methylpyrazol-4-yl)imidazo[1,2-a]pyridin-3-yl]benzamide]	0.01 to 10 nM	0.01 to 10 nM	0.01 to 10 nM	100 to 1000 nM	++ (>1.5-4.5)	–	–	–
COc1ccc(-c2ccn3c(-c4cc(OC)c(C(=O)NC5CC5)c(OC(F)F)c4)cnc3c2)cn1 [compound 267, N-cyclopropyl-2-(difluoromethoxy)-6-methoxy-4-[7-(6-methoxy-3-pyridyl)imidazo[1,2-a]pyridin-3-yl]benzamide]	0.01 to 10 nM	0.01 to 10 nM	0.01 to 10 nM	0.1 to 100 nM	–	–	–	–
COCCOc1cc(-c2cnc3cc(-c4cnn(C)c4)ccn23)cc(OC)c1C(=O)NC1CC1 [Cpd 278, N-cyclopropyl-2-methoxy-6-(2-methoxyethoxy)-4-[7-(1-methylpyrazol-4-yl)imidazo[1,2-a]pyridin-3-yl]benzamide]	10 to 100 nM	0.01 to 10 nM	0.01 to 10 nM	100 to 1000 nM	–	–	–	–

— US12065443B2, “Compounds and pharmaceutical compositions thereof for the treatment of diseases” (priority 2017, dated 2024)
